Key:
[1] = target: G protein-coupled receptor kinase 5 (Homo sapiens) (UniProt P34947); experiment: Inhibition of GRK5 (unknown origin) at 0.1 uM relative to control
[2] = target: Eukaryotic elongation factor 2 kinase (Homo sapiens) (UniProt O00418); experiment: Inhibition of eEF-2K (unknown origin) at 0.1 uM relative to control
[3] = target: Rho-associated protein kinase 2 (Homo sapiens) (UniProt O75116); experiment: Inhibition of ROCK2 (unknown origin) at 0.1 uM relative to control
[4] = target: Protein kinase C theta type (Homo sapiens) (UniProt Q04759); experiment: Inhibition of PKCtheta (unknown origin) at 0.1 uM relative to control
[5] = target: Inhibitor of nuclear factor kappa-B kinase subunit epsilon (Homo sapiens) (UniProt Q14164); experiment: Inhibition of IKKepsilon (unknown origin) at 0.1 uM relative to control
Sequence of Inhibitor of nuclear factor kappa-B kinase subunit epsilon (Homo sapiens) (Q14164 whole entry): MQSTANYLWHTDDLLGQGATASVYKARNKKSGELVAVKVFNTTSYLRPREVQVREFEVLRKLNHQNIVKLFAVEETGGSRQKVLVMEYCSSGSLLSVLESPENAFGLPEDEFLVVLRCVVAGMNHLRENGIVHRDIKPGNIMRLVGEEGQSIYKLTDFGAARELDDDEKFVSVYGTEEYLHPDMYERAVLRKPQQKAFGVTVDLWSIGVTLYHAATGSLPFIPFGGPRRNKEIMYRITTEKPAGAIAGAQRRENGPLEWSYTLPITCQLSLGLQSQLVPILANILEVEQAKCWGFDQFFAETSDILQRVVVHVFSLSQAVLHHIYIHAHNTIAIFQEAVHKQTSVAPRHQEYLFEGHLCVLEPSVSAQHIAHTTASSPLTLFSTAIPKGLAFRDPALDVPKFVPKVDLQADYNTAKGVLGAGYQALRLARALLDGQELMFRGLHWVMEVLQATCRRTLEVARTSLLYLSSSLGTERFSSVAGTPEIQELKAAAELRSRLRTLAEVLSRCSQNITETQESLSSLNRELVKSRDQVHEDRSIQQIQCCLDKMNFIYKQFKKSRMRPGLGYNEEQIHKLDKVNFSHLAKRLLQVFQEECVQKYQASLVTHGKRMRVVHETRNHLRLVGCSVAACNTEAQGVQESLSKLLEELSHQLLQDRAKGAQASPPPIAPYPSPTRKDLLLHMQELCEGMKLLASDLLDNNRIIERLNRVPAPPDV

[6] = target: Tyrosine-protein kinase receptor TYRO3 (Homo sapiens) (UniProt Q06418); experiment: Inhibition of Rse (unknown origin) at 0.1 uM relative to control
Sequence of Tyrosine-protein kinase receptor TYRO3 (Homo sapiens) (Q06418 whole entry): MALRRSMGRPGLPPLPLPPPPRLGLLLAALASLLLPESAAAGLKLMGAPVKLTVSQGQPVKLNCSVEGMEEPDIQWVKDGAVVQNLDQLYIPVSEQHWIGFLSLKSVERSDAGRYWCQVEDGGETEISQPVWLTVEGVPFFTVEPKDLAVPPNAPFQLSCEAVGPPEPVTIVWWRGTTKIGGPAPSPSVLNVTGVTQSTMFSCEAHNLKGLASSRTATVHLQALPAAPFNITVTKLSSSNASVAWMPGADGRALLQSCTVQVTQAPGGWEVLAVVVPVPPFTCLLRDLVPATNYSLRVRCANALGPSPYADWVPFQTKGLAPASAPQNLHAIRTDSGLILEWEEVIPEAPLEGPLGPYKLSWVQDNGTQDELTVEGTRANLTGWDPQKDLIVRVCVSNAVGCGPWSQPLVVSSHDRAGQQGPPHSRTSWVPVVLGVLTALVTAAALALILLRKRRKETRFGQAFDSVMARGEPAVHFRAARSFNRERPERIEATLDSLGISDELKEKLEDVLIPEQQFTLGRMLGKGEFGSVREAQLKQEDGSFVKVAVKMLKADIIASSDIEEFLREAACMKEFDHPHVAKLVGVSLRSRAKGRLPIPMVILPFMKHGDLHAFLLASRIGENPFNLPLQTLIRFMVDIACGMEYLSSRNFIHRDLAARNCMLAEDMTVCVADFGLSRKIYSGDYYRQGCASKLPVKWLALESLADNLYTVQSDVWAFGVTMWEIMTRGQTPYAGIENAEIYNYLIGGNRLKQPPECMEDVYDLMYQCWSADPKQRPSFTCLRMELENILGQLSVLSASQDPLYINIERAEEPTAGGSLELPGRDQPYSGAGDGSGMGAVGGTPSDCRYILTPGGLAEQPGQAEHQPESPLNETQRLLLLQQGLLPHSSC

[7] = target: Serine/threonine-protein kinase Nek6 (Homo sapiens) (UniProt Q9HC98); experiment: Inhibition of NEK6 (unknown origin) at 0.1 uM relative to control
[8] = target: PAS domain-containing serine/threonine-protein kinase (Homo sapiens) (UniProt Q96RG2); experiment: Inhibition of PASK (unknown origin) at 0.1 uM relative to control
[9] = target: Dual specificity protein kinase CLK2 (Homo sapiens) (UniProt P49760); experiment: Inhibition of CLK2 (unknown origin) at 0.1 uM relative to control
Sequence of Dual specificity protein kinase CLK2 (Homo sapiens) (P49760 whole entry, looked up): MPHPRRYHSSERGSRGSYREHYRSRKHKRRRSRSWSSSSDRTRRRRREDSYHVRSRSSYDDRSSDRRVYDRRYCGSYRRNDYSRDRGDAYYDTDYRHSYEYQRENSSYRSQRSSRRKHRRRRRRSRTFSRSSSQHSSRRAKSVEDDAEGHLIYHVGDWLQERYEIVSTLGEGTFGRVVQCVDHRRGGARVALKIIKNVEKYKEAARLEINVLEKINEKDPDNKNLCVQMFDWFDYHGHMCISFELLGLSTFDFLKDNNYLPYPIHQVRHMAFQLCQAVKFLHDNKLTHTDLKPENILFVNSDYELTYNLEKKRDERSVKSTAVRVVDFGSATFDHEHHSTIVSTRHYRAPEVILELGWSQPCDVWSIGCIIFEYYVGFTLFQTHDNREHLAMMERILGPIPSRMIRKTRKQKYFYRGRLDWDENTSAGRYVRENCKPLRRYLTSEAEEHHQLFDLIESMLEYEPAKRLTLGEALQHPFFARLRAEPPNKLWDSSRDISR

[10] = target: Rho-associated protein kinase 1 (Homo sapiens) (UniProt Q13464); experiment: Inhibition of ROCK1 (unknown origin) at 0.1 uM relative to control
[11] = target: Insulin receptor (Homo sapiens) (UniProt P06213); experiment: Inhibition of InsR (unknown origin) at 0.1 uM relative to control
[12] = target: Tyrosine-protein kinase Lck (Homo sapiens) (UniProt P06239); experiment: Inhibition of Lck (unknown origin) at 0.1 uM relative to control
Sequence of Tyrosine-protein kinase Lck (Homo sapiens) (P06239 2-509 limits assumed): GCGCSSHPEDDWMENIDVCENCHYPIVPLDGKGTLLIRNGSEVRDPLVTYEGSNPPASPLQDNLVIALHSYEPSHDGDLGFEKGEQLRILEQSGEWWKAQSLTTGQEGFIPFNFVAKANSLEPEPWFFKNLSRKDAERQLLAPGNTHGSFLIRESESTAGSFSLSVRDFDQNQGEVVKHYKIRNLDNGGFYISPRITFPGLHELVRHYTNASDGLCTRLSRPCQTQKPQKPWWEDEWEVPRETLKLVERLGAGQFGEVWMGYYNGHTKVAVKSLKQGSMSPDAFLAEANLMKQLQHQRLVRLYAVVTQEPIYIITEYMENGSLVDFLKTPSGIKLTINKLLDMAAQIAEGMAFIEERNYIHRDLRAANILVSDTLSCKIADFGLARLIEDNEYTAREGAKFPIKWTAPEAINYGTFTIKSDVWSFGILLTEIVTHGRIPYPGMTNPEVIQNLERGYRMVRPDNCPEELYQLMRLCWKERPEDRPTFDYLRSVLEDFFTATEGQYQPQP

[13] = target: Mitogen-activated protein kinase 12 (Homo sapiens) (UniProt P53778); experiment: Inhibition of p38gamma (unknown origin) at 0.1 uM relative to control
[14] = target: Non-receptor tyrosine-protein kinase TYK2 (Homo sapiens) (UniProt P29597); experiment: Inhibition of TYK2 (unknown origin) at 0.1 uM relative to control
[15] = target: Tyrosine-protein kinase Lyn (Homo sapiens) (UniProt P07948); experiment: Inhibition of Lyn (unknown origin) at 0.1 uM relative to control
[16] = target: Ribosomal protein S6 kinase alpha-5 (Homo sapiens) (UniProt O75582); experiment: Inhibition of MSK1 (unknown origin) at 0.1 uM relative to control
[17] = target: Serine/threonine-protein kinase Sgk2 (Homo sapiens) (UniProt Q9HBY8); experiment: Inhibition of SGK2 (unknown origin) at 0.1 uM relative to control
[18] = target: Interleukin-1 receptor-associated kinase 4 (Homo sapiens) (UniProt Q9NWZ3); experiment: Inhibition of IRAK4 (unknown origin) at 0.1 uM relative to control
Sequence of Interleukin-1 receptor-associated kinase 4 (Homo sapiens) (Q9NWZ3 whole entry): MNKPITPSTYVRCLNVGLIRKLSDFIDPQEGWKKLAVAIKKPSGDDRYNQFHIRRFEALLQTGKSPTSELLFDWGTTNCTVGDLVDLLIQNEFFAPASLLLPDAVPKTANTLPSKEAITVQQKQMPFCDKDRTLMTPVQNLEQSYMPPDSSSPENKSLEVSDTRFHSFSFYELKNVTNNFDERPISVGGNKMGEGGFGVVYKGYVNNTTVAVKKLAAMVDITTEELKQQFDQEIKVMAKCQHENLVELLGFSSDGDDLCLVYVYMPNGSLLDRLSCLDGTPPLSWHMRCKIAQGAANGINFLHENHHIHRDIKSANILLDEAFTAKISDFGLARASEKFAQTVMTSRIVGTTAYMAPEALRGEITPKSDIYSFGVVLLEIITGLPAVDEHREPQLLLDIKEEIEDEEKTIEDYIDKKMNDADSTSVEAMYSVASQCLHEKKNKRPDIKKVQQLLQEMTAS

[19] = target: Serine/threonine-protein kinase 25 (Homo sapiens) (UniProt O00506); experiment: Inhibition of YSK1 (unknown origin) at 0.1 uM relative to control
[20] = target: Maternal embryonic leucine zipper kinase (Homo sapiens) (UniProt Q14680); experiment: Inhibition of MELK (unknown origin) at 0.1 uM relative to control
[21] = target: Mitogen-activated protein kinase 11 (Homo sapiens) (UniProt Q15759); experiment: Inhibition of p38beta (unknown origin) at 0.1 uM relative to control
Sequence of Mitogen-activated protein kinase 11 (Homo sapiens) (Q15759 whole entry): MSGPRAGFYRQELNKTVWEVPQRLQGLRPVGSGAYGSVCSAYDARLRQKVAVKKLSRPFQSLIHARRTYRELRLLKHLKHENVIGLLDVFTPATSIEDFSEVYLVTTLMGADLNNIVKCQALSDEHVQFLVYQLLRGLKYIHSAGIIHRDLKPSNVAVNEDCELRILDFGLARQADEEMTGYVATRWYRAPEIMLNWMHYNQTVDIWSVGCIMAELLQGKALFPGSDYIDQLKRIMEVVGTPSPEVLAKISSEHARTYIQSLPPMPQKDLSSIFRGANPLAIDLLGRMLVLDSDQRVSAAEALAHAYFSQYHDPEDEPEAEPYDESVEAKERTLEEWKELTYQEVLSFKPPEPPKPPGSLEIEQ

[22] = target: Dual specificity protein kinase CLK1 (Homo sapiens) (UniProt P49759); experiment: Inhibition of CLK1 (unknown origin) at 0.1 uM relative to control
[23] = target: Tyrosine-protein kinase Yes (Homo sapiens) (UniProt P07947); experiment: Inhibition of Yes (unknown origin) at 0.1 uM relative to control
[24] = target: Protein kinase C zeta type (Homo sapiens) (UniProt Q05513); experiment: Inhibition of PKCzeta (unknown origin) at 0.1 uM relative to control
[25] = target: Death-associated protein kinase 3 (Homo sapiens) (UniProt O43293); experiment: Inhibition of ZIPK (unknown origin) at 0.1 uM relative to control
[26] = target: Tyrosine-protein kinase FRK (Homo sapiens) (UniProt P42685); experiment: Inhibition of Frk (unknown origin) at 0.1 uM relative to control
[27] = target: Mitogen-activated protein kinase kinase kinase kinase 4 (Homo sapiens) (UniProt O95819); experiment: Inhibition of NIK (unknown origin) at 0.1 uM relative to control
[28] = target: Serine/threonine-protein kinase PLK2 (Homo sapiens) (UniProt Q9NYY3); experiment: Inhibition of PLK2 (unknown origin) at 0.1 uM relative to control
Sequence of Serine/threonine-protein kinase PLK2 (Homo sapiens) (Q9NYY3 whole entry, looked up): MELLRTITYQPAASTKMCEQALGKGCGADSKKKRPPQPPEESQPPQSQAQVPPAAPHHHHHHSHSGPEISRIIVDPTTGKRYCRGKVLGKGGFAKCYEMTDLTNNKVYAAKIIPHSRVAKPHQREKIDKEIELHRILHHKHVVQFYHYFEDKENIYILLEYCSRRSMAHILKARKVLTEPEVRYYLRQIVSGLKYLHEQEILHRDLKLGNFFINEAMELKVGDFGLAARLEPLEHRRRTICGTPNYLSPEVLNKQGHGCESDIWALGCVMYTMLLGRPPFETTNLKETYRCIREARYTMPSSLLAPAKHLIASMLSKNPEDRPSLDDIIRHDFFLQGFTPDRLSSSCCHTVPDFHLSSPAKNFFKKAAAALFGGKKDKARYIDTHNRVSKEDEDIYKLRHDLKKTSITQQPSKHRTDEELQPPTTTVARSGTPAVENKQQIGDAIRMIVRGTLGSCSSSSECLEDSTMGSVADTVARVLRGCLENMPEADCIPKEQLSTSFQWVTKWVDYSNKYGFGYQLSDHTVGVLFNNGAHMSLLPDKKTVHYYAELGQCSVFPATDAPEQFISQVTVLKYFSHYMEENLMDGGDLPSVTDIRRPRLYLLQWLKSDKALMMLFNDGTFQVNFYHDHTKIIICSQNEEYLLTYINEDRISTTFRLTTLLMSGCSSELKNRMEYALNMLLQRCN

[29] = target: Homeodomain-interacting protein kinase 1 (Homo sapiens) (UniProt Q86Z02); experiment: Inhibition of HIPK1 (unknown origin) at 0.1 uM relative to control
[30] = target: Casein kinase I isoform gamma-1 (Homo sapiens) (UniProt Q9HCP0); experiment: Inhibition of CK1gamma1 (unknown origin) at 0.1 uM relative to control
[31] = target: Tyrosine-protein kinase receptor UFO (Homo sapiens) (UniProt P30530); experiment: Inhibition of Axl (unknown origin) at 0.1 uM relative to control
[32] = target: Dual specificity tyrosine-phosphorylation-regulated kinase 1A (Homo sapiens) (UniProt Q13627); experiment: Inhibition of DYRK1A (unknown origin) at 0.1 uM relative to control
Homo sapiens [33] = species on record: Homo sapiens; experiment: Inhibition of CDK2/cyclinA (unknown origin) at 0.1 uM relative to control
[34] = target: Dual specificity protein kinase CLK3 (Homo sapiens) (UniProt P49761); experiment: Inhibition of CLK3 (unknown origin) at 0.1 uM relative to control
[35] = target: Receptor-interacting serine/threonine-protein kinase 2 (Homo sapiens) (UniProt O43353); experiment: Inhibition of RIPK2 (unknown origin) at 0.1 uM relative to control
TAK1/TAB1 (Homo sapiens) = TAK1/TAB1 (Homo sapiens) (UniProt Q15750+O43318); experiment: Inhibition of TAK1-TAB1 (unknown origin) at 0.1 uM relative to control; assay type: protein-complex assay
[36] = target: Protein kinase C eta type (Homo sapiens) (UniProt P24723); experiment: Inhibition of PKCeta (unknown origin) at 0.1 uM relative to control
Sequence of Protein kinase C eta type (Homo sapiens) (P24723 whole entry): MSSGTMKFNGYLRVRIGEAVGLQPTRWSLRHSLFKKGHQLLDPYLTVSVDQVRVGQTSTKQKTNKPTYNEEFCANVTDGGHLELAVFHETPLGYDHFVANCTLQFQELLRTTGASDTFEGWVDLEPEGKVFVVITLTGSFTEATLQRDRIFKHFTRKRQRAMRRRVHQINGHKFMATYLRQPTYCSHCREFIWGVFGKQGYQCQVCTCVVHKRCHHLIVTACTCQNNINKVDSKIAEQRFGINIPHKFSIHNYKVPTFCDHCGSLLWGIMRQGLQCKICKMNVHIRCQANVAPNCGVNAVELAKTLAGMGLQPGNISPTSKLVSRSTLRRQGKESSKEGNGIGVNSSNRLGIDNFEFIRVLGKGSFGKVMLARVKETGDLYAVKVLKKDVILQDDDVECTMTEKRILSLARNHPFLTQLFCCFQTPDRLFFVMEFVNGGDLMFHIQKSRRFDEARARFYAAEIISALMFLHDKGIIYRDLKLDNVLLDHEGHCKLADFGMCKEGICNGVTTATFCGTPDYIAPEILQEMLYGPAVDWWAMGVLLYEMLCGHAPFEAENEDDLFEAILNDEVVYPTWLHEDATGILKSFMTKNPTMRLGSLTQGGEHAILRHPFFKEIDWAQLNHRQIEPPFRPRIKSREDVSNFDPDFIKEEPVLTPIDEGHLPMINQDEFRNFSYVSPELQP

Homo sapiens [37] = species on record: Homo sapiens; experiment: Inhibition of KHS1 (unknown origin) at 0.1 uM relative to control
[38] = target: NUAK family SNF1-like kinase 1 (Homo sapiens) (UniProt O60285); experiment: Inhibition of ARK5 (unknown origin) at 0.1 uM relative to control

Molecule COCCNc1nc2ccc(C#CC3(O)CCCCC3)cc2n1-c1ccnc(N)n1 has an inhibition [1] of 2.5%, an inhibition [2] of 4.3% and an inhibition [3] of 0.5%. For the same molecule, the inhibition [4] was 12.3%, the inhibition [5] was 6% and the inhibition [6] was 1.4%. It also gave an inhibition [7] of 9.9%, an inhibition [8] of 15.9% and an inhibition [9] of 0%. It also gave an inhibition [10] of 0.8%, an inhibition [11] of 3.5% and an inhibition [12] of 7.6%. For the same molecule, the inhibition [13] was 8.1%, the inhibition [14] was 3.3% and the inhibition [15] was -2.7%. It also gave an inhibition [16] of 4.2%, an inhibition [17] of -2.9% and an inhibition [18] of 4.3%. For the same molecule, the inhibition [19] was 6.5%, the inhibition [20] was 4.1% and the inhibition [21] was -6.4%. It also gave an inhibition [22] of 11.3%, an inhibition [23] of -1.4% and an inhibition [24] of 22.8%. For the same molecule, the inhibition [25] was 2.9%, the inhibition [26] was 13.1% and the inhibition [27] was -0.5%. The inhibition [28] was 10.8%, the inhibition [29] was 1.7% and the inhibition [30] was 1.9%. The inhibition [31] was 1.9%, the inhibition [32] was -2% and the inhibition (Homo sapiens [33]) was 1.9%. It also gave an inhibition [34] of 8.9%.

Molecule CN1CCc2cc(-c3cnc4[nH]cc(C(=O)c5ccccc5Cl)c4c3)ccc2C1 has an inhibition [35] of 101%, an inhibition (TAK1/TAB1 (Homo sapiens)) of 27.9% and an inhibition [36] of 17%. For the same molecule, the inhibition (Homo sapiens [37]) was 105% and the inhibition [38] was 85.5%.
